Measurements as given in publication PMC9252884 (Biomolecules & Therapeutics, 2022).

Target: TrkA (tropomyosin receptor kinase A) (Homo sapiens, UniProt P04629)
Assay: TR-FRET
Format: biochemical

TrkA (tropomyosin receptor kinase A), sequence (P04629 441-796 limits assumed): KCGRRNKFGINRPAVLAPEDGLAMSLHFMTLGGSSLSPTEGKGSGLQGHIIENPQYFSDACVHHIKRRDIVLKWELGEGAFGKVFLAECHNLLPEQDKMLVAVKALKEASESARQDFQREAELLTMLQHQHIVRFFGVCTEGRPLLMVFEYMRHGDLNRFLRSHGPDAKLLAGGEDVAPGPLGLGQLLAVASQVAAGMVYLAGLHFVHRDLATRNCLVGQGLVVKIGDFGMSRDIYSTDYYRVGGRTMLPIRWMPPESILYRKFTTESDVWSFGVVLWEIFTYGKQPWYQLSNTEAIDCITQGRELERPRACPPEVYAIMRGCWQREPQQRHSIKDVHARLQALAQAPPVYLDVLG

Nc1ncc(-c2cnn(C3CCNCC3)c2)cc1-c1nc2ccccc2o1 [KRC-108, 3-(benzo[d]oxazol-2-yl)-5-(1-(piperidin-4-yl)-1H-pyrazol-4-yl)pyridin-2-amine]
IC50: 43.3 nM
